Measurements: patent US6743609B1, “Linoleate isomerase” (Arkion Life Sciences LLC, priority 1997, dated 2004)
pKi: −log10 of the molar value.

Experiments:
[1] = test system: P. acnes ATCC 6919 linoleate isomerase; experiment: Effect of cofactors, metals, chelators and sulfhydryl reagents on isomerase activity of crude soluble enzyme preparation; assay type: biochemical, Propionibacterium acnes; conditions: for effect of possible cofactor on isomerase activity: 60 minute assays
Protocol: A number of possible cofactors were tested for their effect on isomerase activity, including NAD, NADH, NADP, NADPH, FAD, FMN, ADP, ATP and glutathione.
(§1) Generally, the isomerase was assayed using an endpoint assay after 30 to 60 minutes incubation at room temperature. FIG. 18 (time course assay at different linoleic acid levels) and FIG. 19 (end point assay at different linoleic acid levels) show the effect of increasing substrate concentration on formation of […].

[2] = test system: Lactobacillus reuteri PYR8 9,11 linoleate isomerase (whole cells); experiment: Whole-cell biotransformation of linoleic acid, effect of product and substrate on isomerase; assay type: cell-based; conditions: 700 ppm CLA from recycled reaction broth, 1000 ppm linoleic acid
Description: The following example describes the determination of conditions to improve enzyme stability and performance and on testing the limitations of the biotransformation process. Whole cells of L. reuteri PYR8 were used in all biotransformation experiments described below.
The effect of substrate and product on the enzyme performance was also investigated, as well as the possibility of recycling the cells. The effect of CLA on the reaction was studied by adding different concentrations of either a mixture of isomers (Sigma material, approximately 41% 9,11 isomer and 48% 10,12 CLA), or just 9,11 CLA (Matreya material, approximately 77% 9,11 CLA). Concentrations from 500 to 3000 ppm were tested. Some experiments were also performed recycling the broth from a previous biotransformation reaction with L. reuteri PYR8, resulting in an initial CLA concentration around 700 ppm. In every case, 1000 ppm linoleic acid were added. […] In the same period, almost complete conversion of the linoleic acid was obtained in the control without exogenous CLA. However, the effect was not detected when the CLA present came from recycled reaction broth. […] The results may indicate that some of the impurities present in the chemically produced CLA may be stronger inhibitors of the 9,11 isomerase than the product itself. […]

[3] = test system: C. sporogenes ATCC 25762 linoleate isomerase; experiment: Effect of additives, buffer components and detergents on C. sporogenes isomerase activity; assay type: biochemical, Clostridium sporogenes
Protocol: It has been reported that solubilization in the presence of lysophosphatidylcholine (LPC) allows higher detergent concentrations to be used, thus allowing more complete membrane protein solubilization. CaCl2 can activate enzymes, such as some nucleases.
A third nonionic detergent, octyl glucoside (OG) was tested for its ability to solubilize the C. sporogenes linoleate isomerase.

L. reuteri PYR8 = experiment: Whole cell biotransformation of linoleic acid to CLA; assay type: cell-based, Lactobacillus reuteri; conditions: for (cis,trans)-9,11-CLA formation on addition of nonionic detergent: detergents added to 0.1-0.5% final concentration
Protocol: Cultures were grown and harvested as described above. Washed cells were resuspended in either fresh growth medium or 0.1 M Tris pH 8.0 buffer containing linoleic acid at various concentrations.
Samples were taken at appropriate intervals and analyzed for CLA as described in Example 2. In some experiments, various detergents were added to 0.1-0.5% final concentration. […] About 5 mL solvent was added to about 20 mL aqueous cell suspension in a 125 mL baffled shake flask incubated at room temperature.
Linoleic acid was added as 99% LA, dissolved in propyleneglycol (100 mg/ml solution) or emulsified with 0.5, 5 or 30% lecithin. The emulsion was prepared by blending the linoleic acid and the lecithin with the reaction medium before the addition of the cells. Linoleic acid was added at 1000 and 2000 ppm.
In the second experiment, cell recycle was studied with cells that have performed the biotransformation at different levels of linoleic acid. Cells were harvested, resuspended in breakage buffer at a 10-fold concentration, and linoleic acid was added at 1000, 1500, 2000, 2500 and 3000 ppm level. Given the higher linoleic acid concentration, the reaction was allowed to proceed for six hours. […] 1000 ppm linoleic acid were added and the reaction was followed for four hours.

9,11 linoleate isomerase = experiment: Test of possible inducers of the 9,11 linoleate isomerase in the growth medium; assay type: cell-based, Lactobacillus reuteri; conditions: 100 mg/l in the growth medium
Protocol: Several substances were tested as possible inducers of the 9,11 linoleate isomerase. The materials tested included: lauric acid, myristic acid, palmitic acid, palmitoleic acid, oleic acid, linoleic acid, linolenic acid, oleic acid stearyl ester, linoleyl alcohol, linoleic acid methyl ester, linoleic acid ethyl ester, stearic acid and linoleic acid methyl ester. They were added to the growth medium at a 100 mg/l level.

[4] = target: T1, Propionibacterium acnes ATCC 6919 linoleate isomerase (10,12-linoleate isomerase) (Cutibacterium acnes, UniProt Q6A8X5); experiment: Linoleate isomerase activity in crude soluble extract, effect of cofactors, chelators, sulfhydryl reagents and substrate level; assay type: biochemical; conditions: increasing linoleic acid levels, FIGS. 18 and 19
T1 construct: gene not cloned in this document
T1 sequence (Q6A8X5 entry or part of it): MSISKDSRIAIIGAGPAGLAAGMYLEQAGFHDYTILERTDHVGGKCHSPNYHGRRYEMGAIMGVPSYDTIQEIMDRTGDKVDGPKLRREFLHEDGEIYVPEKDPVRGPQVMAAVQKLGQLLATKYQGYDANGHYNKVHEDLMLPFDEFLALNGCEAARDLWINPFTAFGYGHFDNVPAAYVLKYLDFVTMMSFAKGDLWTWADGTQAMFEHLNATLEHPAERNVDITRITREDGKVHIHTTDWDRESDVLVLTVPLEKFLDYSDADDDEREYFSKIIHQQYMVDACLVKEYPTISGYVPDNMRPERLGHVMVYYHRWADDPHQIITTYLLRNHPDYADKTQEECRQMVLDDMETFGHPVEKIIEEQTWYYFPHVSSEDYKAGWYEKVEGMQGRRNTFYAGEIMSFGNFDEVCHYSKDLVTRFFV
Protocol: (§2) About 50 to about 250 μL of enzyme sample was added to 1.5 mL of enzyme assay buffer for reaction. About 1 to about 2 mL of aqueous phase was separated from the enzyme reaction and was extracted with about 3 mL of hexane. […] Depending on the level of activity, assay mixtures of chromatography fractions were incubated at room temperature from about 1 to about 24 hours before extraction with hexane.
Enzyme extracts were prepared by French Press and the extract fractionated as outlined in FIG. 15. Taking the total isomerase activity in fraction A as 100%, over 93% of the activity was detected in the soluble protein fraction (B) Less than 1% of the isomerase activity was found in the washed pellet, or membrane fraction (C). Approximately 2% of the activity was located in the buffer fraction (D), after the pellet washing and centrifugation steps. Thus, the P. acnes isomerase clearly is not a membrane protein, unlike the isomerase activities in L. reuteri PYR8 and other strains examined to date.
Calcium and magnesium also had no effect.
as §1

[5] = test system: isolated linoleate isomerase (source organism not stated with the values); experiment: Michaelis-Menten kinetics of isolated linoleate isomerase (linoleic acid substrate, oleic acid inhibition)
[6] = test system: Clostridium sporogenes ATCC 25762 linoleate isomerase; experiment: Linoleate isomerase activity versus linoleic acid concentration; assay type: biochemical; conditions: tested from 0 to 100 ppm, FIG. 26
Protocol: as §2
Temperature optimization with crude extracts was carried out at 4° C., room temperature (˜25° C.) and 37° C. The best temperature for the isomerase activity was room temperature (FIG. 25). The isomerase activity decreased to 73% of optimum at 4° C. and 63% of optimum at 37° C.
The concentration of linoleic acid was tested from 0 to 100 ppm (FIG. 26). The optimum concentration for linoleic add was determined to be 40 ppm.

linoleate isomerase = assay type: biochemical; conditions: pH optimum of about 7.5

c1cnc2c(c1)ccc1cccnc12 [1,10-phenanthroline]
inhibition of isomerase activity ([1]; 1 mM): not inhibited

Nc1ncnc2c1ncn2[C@@H]1O[C@H](COP(=O)(O)OP(=O)(O)O)[C@@H](O)[C@H]1O [ADP]
effect of possible cofactor on isomerase activity [1]: No significant effect

CCCCCC/C=C/C=C\CCCCCCCC(=O)O [CLA]
effect of CLA from recycled reaction broth on conversion rate [2]: no difference in conversion rate

[Ca+2].[Cl-].[Cl-] [CaCl2]
effect on enzyme activity ([3]; Tris and phosphate buffer systems): decreased the enzyme activity | effect on enzyme activity ([3]; temperatures higher than 37° C.): no effect on the activity

[Ca] [Calcium]
effect of metal on isomerase activity [1]: no effect

Cc1cc2nc3c(=O)[nH]c(=O)nc-3n(C[C@H](O)[C@H](O)[C@H](O)COP(=O)(O)OP(=O)(O)OC[C@H]3O[C@@H](n4cnc5c(N)ncnc54)[C@H](O)[C@@H]3O)c2cc1C [FAD]
effect of possible cofactor on isomerase activity [1]: No significant effect

Cc1cc2nc3c(=O)[nH]c(=O)nc-3n(C[C@H](O)[C@H](O)[C@H](O)COP(=O)(O)O)c2cc1C [FMN]
effect of possible cofactor on isomerase activity [1]: No significant effect

CCN1C(=O)C=CC1=O [N-ethylmaleimide]
inhibition of isomerase activity ([1]; 100 μM): not inhibited

NC(=O)C1=CN([C@@H]2O[C@H](COP(=O)(O)OP(=O)(O)OC[C@H]3O[C@@H](n4cnc5c(N)ncnc54)[C@H](O)[C@@H]3O)[C@@H](O)[C@H]2O)C=CC1 [NADH]
effect of possible cofactor on isomerase activity [1]: No significant effect

NC(=O)C1=CN([C@@H]2O[C@H](COP(=O)(O)OP(=O)(O)OC[C@H]3O[C@@H](n4cnc5c(N)ncnc54)[C@H](OP(=O)(O)O)[C@@H]3O)[C@@H](O)[C@H]2O)C=CC1 [NADPH]
effect of possible cofactor on isomerase activity [1]: No significant effect

NC(=O)c1ccc[n+]([C@@H]2O[C@H](COP(=O)([O-])OP(=O)(O)OC[C@H]3O[C@@H](n4cnc5c(N)ncnc54)[C@H](OP(=O)(O)O)[C@@H]3O)[C@@H](O)[C@H]2O)c1 [NADP]
effect of possible cofactor on isomerase activity [1]: No significant effect

NC(=O)c1ccc[n+]([C@@H]2O[C@H](COP(=O)([O-])OP(=O)(O)OC[C@H]3O[C@@H](n4cnc5c(N)ncnc54)[C@H](O)[C@@H]3O)[C@@H](O)[C@H]2O)c1 [NAD]
effect of possible cofactor on isomerase activity [1]: No significant effect

CCCCCCCCO[C@@H]1O[C@H](CO)[C@@H](O)[C@H](O)[C@H]1O [OG, octyl glucoside]
isomerase specific activity higher than that of OTGP solubilized isomerase ([3]; 1.5% (2×critical micelle concentration)): about 20%

CCCCCCCC/C=C\CCCCCCCC(=O)OCCOCC(OCCO)C1OCC(OCCO)C1OCCO (stereo not shown) [Tween-80]
(cis,trans)-9,11-CLA formation on addition of nonionic detergent (L. reuteri PYR8): does not significantly increase

N[C@@H](CCC(=O)N[C@@H](CS)C(=O)NCC(=O)O)C(=O)O [glutathione]
effect of possible cofactor on isomerase activity [1]: No significant effect

OCC(O)CO [glycerol]
increase in activity on increasing the concentration ([3]; extraction buffer): 30%

CCCCCCCCCCCC(=O)O [lauric acid]
effect as inducer on expression and/or activity of the isomerase (9,11 linoleate isomerase): No positive effect

CCCCC/C=C\C/C=C\CCCCCCCC(=O)OCC [linoleic acid ethyl ester]
effect as inducer on expression and/or activity of the isomerase (9,11 linoleate isomerase): No positive effect

CCCCC/C=C\C/C=C\CCCCCCCC(=O)OC [linoleic acid methyl ester]
effect as inducer on expression and/or activity of the isomerase (9,11 linoleate isomerase): No positive effect

CCCCC/C=C\C/C=C\CCCCCCCC(=O)O [linoleic acid, (cis,cis)-9,12-linoleic acid]
substrate inhibition by linoleic acid [4]: not subject to the same type of substrate inhibition | linoleic acid concentration at which initial velocity decreases [5]: about 60 μM | effect as inducer on expression and/or activity of the isomerase (9,11 linoleate isomerase): No positive effect | optimum concentration for linoleic acid [6]: 40 ppm | substrate inhibition (L. reuteri PYR8; up to 3000 ppm linoleic acid, cells 10-fold concentrated in breakage buffer): no substrate inhibition was detected | Km (linoleate isomerase; read-out: Km for linoleic acid): ~8.1 µM

CCCCC/C=C\C/C=C\CCCCCCCCO [linoleyl alcohol]
effect as inducer on expression and/or activity of the isomerase (9,11 linoleate isomerase): No positive effect

[Mg] [magnesium]
effect of metal on isomerase activity [1]: no effect

CCCCCCCCCCCCCC(=O)O [myristic acid]
effect as inducer on expression and/or activity of the isomerase (9,11 linoleate isomerase): No positive effect

CCCCCCCC/C=C\CCCCCCCC(=O)OCCCCCCCCCCCCCCCCCC [oleic acid stearyl ester]
effect as inducer on expression and/or activity of the isomerase (9,11 linoleate isomerase): No positive effect

CCCCCCCC/C=C\CCCCCCCC(=O)O [oleic acid]
effect as inducer on expression and/or activity of the isomerase (9,11 linoleate isomerase): No positive effect | pKi (linoleate isomerase; read-out: Ki for oleic acid): ~4.10

O=C(O)c1cc[c]([Hg][Cl])cc1 [p-chloromercuribenzoate]
inhibition of isomerase activity ([1]; 5 μM): not inhibited

CCCCCCCCCCCCCCCC(=O)O [palmitic acid]
effect as inducer on expression and/or activity of the isomerase (9,11 linoleate isomerase): No positive effect

CCCCCC/C=C\CCCCCCCC(=O)O [palmitoleic acid]
effect as inducer on expression and/or activity of the isomerase (9,11 linoleate isomerase): No positive effect

CCCCCCCCCCCCCCCCCC(=O)O [stearic acid]
effect as inducer on expression and/or activity of the isomerase (9,11 linoleate isomerase): No positive effect

Triton X-100
(cis,trans)-9,11-CLA formation on addition of nonionic detergent (L. reuteri PYR8): does not significantly increase
